Experimental findings from PMC2957683, “IKKβ inhibitor identification: a multi-filter driven novel scaffold” (2010) are described below.

The target of this assay is T1, IKKβ (Homo sapiens, UniProt O14920).
T1 construct: gene IKBKB
T1 sequence (O14920 1-756): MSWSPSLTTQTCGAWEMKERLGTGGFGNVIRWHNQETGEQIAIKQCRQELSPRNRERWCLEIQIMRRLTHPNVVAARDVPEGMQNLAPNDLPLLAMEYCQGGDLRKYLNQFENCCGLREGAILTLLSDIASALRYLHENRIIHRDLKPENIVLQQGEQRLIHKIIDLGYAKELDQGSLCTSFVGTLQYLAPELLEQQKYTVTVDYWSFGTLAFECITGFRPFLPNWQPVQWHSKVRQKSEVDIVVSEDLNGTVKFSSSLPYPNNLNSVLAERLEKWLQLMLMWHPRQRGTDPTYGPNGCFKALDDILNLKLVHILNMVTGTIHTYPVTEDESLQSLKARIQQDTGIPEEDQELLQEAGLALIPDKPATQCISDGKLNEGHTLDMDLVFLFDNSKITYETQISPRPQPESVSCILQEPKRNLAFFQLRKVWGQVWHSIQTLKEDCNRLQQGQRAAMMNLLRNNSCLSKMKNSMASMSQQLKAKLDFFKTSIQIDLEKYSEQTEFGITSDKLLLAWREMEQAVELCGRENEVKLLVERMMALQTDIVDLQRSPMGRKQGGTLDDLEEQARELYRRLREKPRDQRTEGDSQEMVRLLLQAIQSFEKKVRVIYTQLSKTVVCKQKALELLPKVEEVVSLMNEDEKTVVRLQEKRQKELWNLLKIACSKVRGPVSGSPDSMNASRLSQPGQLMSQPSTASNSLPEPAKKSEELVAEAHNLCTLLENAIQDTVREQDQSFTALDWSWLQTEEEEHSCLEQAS
In words: IMAP TR-FRET kinase assay with IKKβ enzyme (Millipore), IκBα-derived peptide substrate, […] ATP. The class given is biochemical. On the technique in general: In TR-FRET formats the signal depends on donor and acceptor labels being close together.

One may read the IC50 as the midpoint of a concentration-inhibition curve. A low value points to greater potency. `COc1ccc(-c2nc3c(c(SCC(=O)Nc4cccc(O)c4)n2)Cc2c(CO)cnc(C)c2O3)cc1` [VH01] had an IC50 of 20.3 µM.

Regarding `N#Cc1c(C2CCCNC2)cc(-c2ccccc2O)nc1N` (centres unmarked) [Bayer-5a], the IC50 stood at 0.17 µM.
